Assay results published in the NIST ThermoML archive (doi:10.1021/je600559q).

Key:
[1] = refractive index (Na D-line) (dimensionless); conditions: 293.1 K; 101.33 kPa; Liquid; Standard Abbe refractometry
[2] = Liquid

CC1CCCCC1O (configuration not stated) [2-methylcyclohexanol]
Conditions | refractive index
[1] | 1.46313

[2]
Conditions | vapor or sublimation pressure [kPa]
361.23 K | 5.394
362.23 K | 5.668
363.13 K | 5.919
365.7 K | 6.693
367.68 K | 7.345
369.92 K | 8.152
371.63 K | 8.817
373.16 K | 9.448
375.31 K | 10.4
377.78 K | 11.58
380.39 K | 12.94
383.11 K | 14.52
385.95 K | 16.32
386.1 K | 16.42
389.56 K | 18.86
393.07 K | 21.65
395.88 K | 24.1
398.52 K | 26.6
402.67 K | 30.99
406.67 K | 35.73
410.73 K | 41.11
414 K | 45.9
418.26 K | 52.85
424.63 K | 64.66
439.57 K | 100.47

CC(=O)OC1CCCCC1C (configuration not stated) [2-methylcyclohexyl acetate]
Conditions | refractive index
[1] | 1.43896

[2]
Conditions | vapor or sublimation pressure [kPa]
368.01 K | 5.32
369.86 K | 5.758
371.87 K | 6.261
373.83 K | 6.787
376.56 K | 7.594
379.93 K | 8.675
383.36 K | 9.912
386.65 K | 11.22
391.27 K | 13.32
393.39 K | 14.38
394.15 K | 14.77
398.42 K | 17.2
401.6 K | 19.19
403.3 K | 20.34
405.73 K | 22.08
410.71 K | 26.01
415.57 K | 30.39
418.74 K | 33.54
421.2 K | 36.16
423.84 K | 39.17
426.54 K | 42.45
429.41 K | 46.21
433.2 K | 51.55
440.4 K | 63.09
458 K | 100.13
